Laboratory results: patent US8686150B2 (Sanofi, priority 2011, dated 2014)

Molecular target: T1, human full-length recombinant PKC βII (Homo sapiens, UniProt P05771)
T1 construct: Active human full-length recombinant PKC βII; purchased Invitrogen GmbH, Darmstadt, Germany
Assay: Determination of PKC βII inhibition (Caliper mobility-shift kinase assay, Fluorescein-RFARKGSLRQKNV peptide substrate)
Assay type: biochemical
Conditions: example compounds at a final concentration of 1.14 μM (±0.15 μM)
How it was run: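 Compounds were tested at 1.14 μM final. Enzyme was activated by PS, DAG and CaCl2 in Hepes pH 7.4 with MgCl2, with substrate 3 μM and ATP 120 μM as pre-mix concentrations. After 60 min at 32 °C and an EDTA stop, Caliper separation gave fractional turnover, which was normalised to no-compound and no-enzyme controls.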

T1 sequence (P05771 1-673 isoform P05771-2): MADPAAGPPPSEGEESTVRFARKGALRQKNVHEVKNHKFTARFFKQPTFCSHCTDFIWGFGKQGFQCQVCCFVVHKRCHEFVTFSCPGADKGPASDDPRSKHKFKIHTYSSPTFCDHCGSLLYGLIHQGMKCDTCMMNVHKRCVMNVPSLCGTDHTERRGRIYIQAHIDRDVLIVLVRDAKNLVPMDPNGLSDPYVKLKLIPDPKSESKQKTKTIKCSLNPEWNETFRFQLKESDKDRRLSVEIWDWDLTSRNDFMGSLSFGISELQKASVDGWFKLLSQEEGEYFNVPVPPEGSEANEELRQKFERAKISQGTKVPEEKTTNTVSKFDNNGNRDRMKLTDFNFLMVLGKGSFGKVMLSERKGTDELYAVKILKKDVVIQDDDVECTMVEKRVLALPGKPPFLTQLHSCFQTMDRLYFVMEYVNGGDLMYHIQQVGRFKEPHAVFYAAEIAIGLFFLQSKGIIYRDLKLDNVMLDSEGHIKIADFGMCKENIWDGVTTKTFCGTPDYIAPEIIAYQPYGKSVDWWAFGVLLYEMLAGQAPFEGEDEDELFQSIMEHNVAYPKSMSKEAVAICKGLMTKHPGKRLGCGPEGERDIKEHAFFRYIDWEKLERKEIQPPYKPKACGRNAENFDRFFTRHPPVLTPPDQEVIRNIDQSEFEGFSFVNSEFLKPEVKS

inhibition at 1.14 µM [%]	SMILES
80	Cc1n[nH]c2nc(-c3ccc(O)c(F)c3)cc(C(=O)NCC(C)(C)N3CCN(C)CC3)c12 [Example 362, 6-(3-Fluoro-4-hydroxy-phenyl)-3-methyl-1H-pyrazolo[3,4-b]pyridine-4-carboxylic acid [2-methyl-2-(4-methyl-piperazin-1-yl)-propyl]-amide]
59	Cc1n[nH]c2nc(-c3ccc(O)c(F)c3)cc(C(=O)NC3CC4(CC(N)C4)C3)c12 (centres unmarked) [Example 288, 6-(3-Fluoro-4-hydroxy-phenyl)-3-methyl-1H-pyrazolo[3,4-b]pyridine-4-carboxylic acid (6-amino-spiro[3.3]hept-2-yl)-amide]
59	Cc1n[nH]c2nc(-c3ccc(O)cc3)cc(C(=O)N3CCCC4(CNCCO4)C3)c12 (centres unmarked) [Example 262, [6-(4-Hydroxy-phenyl)-3-methyl-1H-pyrazolo[3,4-b]pyridin-4-yl]-(1-oxa-4,8-diaza-spiro[5.5]undec-8-yl)-methanone]
42	Cc1n[nH]c2nc(-c3ccc(O)c(F)c3)cc(C(=O)N3CCC4(CNCCO4)C3)c12 (centres unmarked) [Example 323, [6-(3-Fluoro-4-hydroxy-phenyl)-3-methyl-1H-pyrazolo[3,4-b]pyridin-4-yl]-(6-oxa-2,9-diaza-spiro[4.5]dec-2-yl)-methanone]
61	Cc1n[nH]c2nc(-c3cc(F)c(O)c(F)c3)cc(C(=O)N3CCNCC3)c12 [Example 12, [6-(3,5-Difluoro-4-hydroxy-phenyl)-3-methyl-1H-pyrazolo[3,4-b]pyridin-4-yl]-piperazin-1-yl-methanone]
68	Cc1n[nH]c2nc(-c3ccc(O)c(F)c3)cc(C(=O)NC3CCC(N)CC3)c12 (centres unmarked) [Example 338, 6-(3-Fluoro-4-hydroxy-phenyl)-3-methyl-1H-pyrazolo[3,4-b]pyridine-4-carboxylic acid (4-amino-cyclohexyl)-amide]
90	Cc1n[nH]c2nc(-c3ccc(O)cc3F)cc(C(=O)N3CCC(N)(c4ccccc4)CC3)c12 [Example 415, (4-Amino-4-phenyl-piperidin-1-yl)-[6-(2-fluoro-4-hydroxy-phenyl)-3-methyl-1H-pyrazolo[3,4-b]pyridin-4-yl]-methanone]
98	Cc1n[nH]c2nc(-c3ccc(O)cc3)cc(C(=O)N3CCNCC3c3ccc(F)cc3F)c12 (centres unmarked) [Example 96, [2-(2,4-Difluoro-phenyl)-piperazin-1-yl]-[6-(4-hydroxy-phenyl)-3-methyl-1H-pyrazolo[3,4-b]pyridin-4-yl]-methanone]
60	Cc1n[nH]c2nc(-c3ccc(O)c(F)c3)cc(C(=O)N3CCC4CNCC43)c12 (centres unmarked) [Example 308, [6-(3-Fluoro-4-hydroxy-phenyl)-3-methyl-1H-pyrazolo[3,4-b]pyridin-4-yl]-(hexahydro-pyrrolo[3,4-b]pyrrol-1-yl)-methanone]
101	Cc1n[nH]c2nc(-c3ccc(O)cc3F)cc(C(=O)N3CCNCC3)c12 [Example 11, [6-(2-Fluoro-4-hydroxy-phenyl)-3-methyl-1H-pyrazolo[3,4-b]pyridin-4-yl]-piperazin-1-yl-methanone]

Second part, the molecule before the results:

SMILES	inhibition at 1.14 µM [%]
Cc1n[nH]c2nc(-c3ccc(O)cc3)cc(C(=O)NC3CNC3)c12 [Example 248, 6-(4-Hydroxy-phenyl)-3-methyl-1H-pyrazolo[3,4-b]pyridine-4-carboxylic acid azetidin-3-ylamide]	83
Cc1n[nH]c2nc(-c3ccc(O)cc3)cc(C(=O)N3CCN(C(=O)N4CCCC4)CC3)c12 [Example 379, {4-[6-(4-Hydroxy-phenyl)-3-methyl-1H-pyrazolo[3,4-b]pyridine-4-carbonyl]-piperazin-1-yl}-pyrrolidin-1-yl-methanone]	86
Cc1n[nH]c2nc(-c3ccc(O)cc3F)cc(C(=O)NC3(c4ccccc4)CCNCC3)c12 [Example 440, 6-(2-Fluoro-4-hydroxy-phenyl)-3-methyl-1H-pyrazolo[3,4-b]pyridine-4-carboxylic acid (4-phenyl-piperidin-4-yl)-amide]	90
Cc1n[nH]c2nc(-c3ccc(O)cc3)cc(C(=O)N3CCNCC3c3cccc(Br)c3)c12 (centres unmarked) [Example 101, [2-(3-Bromo-phenyl)-piperazin-1-yl]-[6-(4-hydroxy-phenyl)-3-methyl-1H-pyrazolo[3,4-b]pyridin-4-yl]-methanone]	99
O=C(c1cc(-c2ccc(O)cc2)nc2[nH]nc(C(F)(F)F)c12)N1CC2CNCC2C1 (centres unmarked) [Example 400, (Hexahydro-pyrrolo[3,4-c]pyrrol-2-yl)-[6-(4-hydroxy-phenyl)-3-trifluoromethyl-1H-pyrazolo[3,4-b]pyridin-4-yl]-methanone]	62
Cc1n[nH]c2nc(-c3ccc(O)cc3)cc(C(=O)N3CCNCC3c3ccccc3F)c12 (centres unmarked) [Example 95, [2-(2-Fluoro-phenyl)-piperazin-1-yl]-[6-(4-hydroxy-phenyl)-3-methyl-1H-pyrazolo[3,4-b]pyridin-4-yl]-methanone]	99
Cc1n[nH]c2nc(-c3ccc(O)cc3)cc(C(=O)N3CC4CN(Cc5ccccc5)CC4C3)c12 (centres unmarked) [Example 386, (5-Benzyl-hexahydro-pyrrolo[3,4-c]pyrrol-2-yl)-[6-(4-hydroxy-phenyl)-3-methyl-1H-pyrazolo[3,4-b]pyridin-4-yl]-methanone]	51
Cc1n[nH]c2nc(-c3ccc(O)cc3F)cc(C(=O)N3C[C@@H](C)NC[C@H]3C)c12 [Example 428, ((2R,5R)-2,5-Dimethyl-piperazin-1-yl)-[6-(2-fluoro-4-hydroxy-phenyl)-3-methyl-1H-pyrazolo[3,4-b]pyridin-4-yl]-methanone]	35
CCc1n[nH]c2nc(-c3ccc(O)cc3)cc(C(=O)N3CCNC(C)C3)c12 (centres unmarked) [Example 165, [3-Ethyl-6-(4-hydroxy-phenyl)-1H-pyrazolo[3,4-b]pyridin-4-yl]-(3-methyl-piperazin-1-yl)-methanone]	92
CO[C@H]1CNC[C@@H]1NC(=O)c1cc(-c2ccc(O)cc2)nc2[nH]nc(C)c12 [Example 213, 6-(4-Hydroxy-phenyl)-3-methyl-1H-pyrazolo[3,4-b]pyridine-4-carboxylic acid ((3S,4S)-4-methoxy-pyrrolidin-3-yl)-amide]	94
Cc1n[nH]c2nc(-c3ccc(O)cc3)cc(C(=O)N3CCNCC3c3ccc(F)cc3)c12 (centres unmarked) [Example 84, [2-(4-Fluoro-phenyl)-piperazin-1-yl]-[6-(4-hydroxy-phenyl)-3-methyl-1H-pyrazolo[3,4-b]pyridin-4-yl]-methanone]	101
Cc1n[nH]c2nc(-c3ccc(O)cc3)cc(C(=O)N(C)C3CCN(C)CC3)c12 [Example 272, 6-(4-Hydroxy-phenyl)-3-methyl-1H-pyrazolo[3,4-b]pyridine-4-carboxylic acid methyl-(1-methyl-piperidin-4-yl)-amide]	85
Cc1n[nH]c2nc(-c3ccc(O)cc3F)cc(C(=O)N3C[C@@H](c4ccccc4)NC[C@@H]3C)c12 (relative stereo) [Example 447, [6-(2-Fluoro-4-hydroxy-phenyl)-3-methyl-1H-pyrazolo[3,4-b]pyridin-4-yl]-(trans-2-methyl-5-phenyl-piperazin-1-yl)-methanone]	83
Cc1n[nH]c2nc(-c3ccc(O)cc3)cc(C(=O)NC(CN3CCCC3)c3ccccc3)c12 (centres unmarked) [Example 377, 6-(4-Hydroxy-phenyl)-3-methyl-1H-pyrazolo[3,4-b]pyridine-4-carboxylic acid (1-phenyl-2-pyrrolidin-1-yl-ethyl)-amide]	69
CC(=O)N1CCC(NC(=O)c2cc(-c3ccc(O)cc3)nc3[nH]nc(C)c23)CC1 [Example 277, 6-(4-Hydroxy-phenyl)-3-methyl-1H-pyrazolo[3,4-b]pyridine-4-carboxylic acid (1-acetyl-piperidin-4-yl)-amide]	35
CCCC1(NC(=O)c2cc(-c3ccc(O)cc3)nc3[nH]nc(C)c23)CCCNC1 (centres unmarked) [Example 124, 6-(4-Hydroxy-phenyl)-3-methyl-1H-pyrazolo[3,4-b]pyridine-4-carboxylic acid (3-propyl-piperidin-3-yl)-amide]	78
Cc1n[nH]c2nc(-c3ccc(O)cc3)cc(C(=O)NCC3CCNC3)c12 (centres unmarked) [Example 216, 6-(4-Hydroxy-phenyl)-3-methyl-1H-pyrazolo[3,4-b]pyridine-4-carboxylic acid (pyrrolidin-3-ylmethyl)-amide]	92
Cc1n[nH]c2nc(-c3ccc(O)cc3F)cc(C(=O)N3C(C)CNCC3C)c12 (centres unmarked) [Example 444, (2,6-Dimethyl-piperazin-1-yl)-[6-(2-fluoro-4-hydroxy-phenyl)-3-methyl-1H-pyrazolo[3,4-b]pyridin-4-yl]-methanone]	99
Cc1n[nH]c2nc(-c3ccc(O)cc3)cc(C(=O)N3CC(C)(C)NCC3C)c12 (centres unmarked) [Example 113, [6-(4-Hydroxy-phenyl)-3-methyl-1H-pyrazolo[3,4-b]pyridin-4-yl]-(2,5,5-trimethyl-piperazin-1-yl)-methanone]	93
Cc1n[nH]c2nc(-c3ccc(O)cc3)cc(C(=O)NC3CCNC3)c12 (centres unmarked) [Example 106, 6-(4-Hydroxy-phenyl)-3-methyl-1H-pyrazolo[3,4-b]pyridine-4-carboxylic acid pyrrolidin-3-ylamide]	77
Cc1n[nH]c2nc(-c3ccc(O)cc3)cc(C(=O)N3CCN(C(=O)c4ccoc4)CC3)c12 [Example 380, [4-(Furan-3-carbonyl)-piperazin-1-yl]-[6-(4-hydroxy-phenyl)-3-methyl-1H-pyrazolo[3,4-b]pyridin-4-yl]-methanone]	83
Cc1n[nH]c2nc(-c3ccc(O)cc3)cc(C(=O)N3CCNCC3c3ccc(Br)cc3)c12 (centres unmarked) [Example 89, [2-(4-Bromo-phenyl)-piperazin-1-yl]-[6-(4-hydroxy-phenyl)-3-methyl-1H-pyrazolo[3,4-b]pyridin-4-yl]-methanone]	92
